Data: ChEMBL document CHEMBL4507319 (2021)

What was measured:
[1] = tested on: Tyrosine-protein kinase ABL1 (Homo sapiens), P00519 [F317I]; conditions: Compound concentration 1000.0 nM
[2] = tested on: Tyrosine-protein kinase ABL1 (Homo sapiens), P00519 [M351T]; conditions: Compound concentration 1000.0 nM
[3] = molecular target: RAC-gamma serine/threonine-protein kinase (Homo sapiens) (UniProt Q9Y243); conditions: Compound concentration 1000.0 nM
[4] = molecular target: Calcium/calmodulin-dependent protein kinase kinase 2 (Homo sapiens) (UniProt Q96RR4); conditions: Compound concentration 1000.0 nM
[5] = tested on: Epidermal growth factor receptor (Homo sapiens), P00533 [UNDEFINED MUTATION]; conditions: Compound concentration 1000.0 nM
[6] = molecular target: Cyclin-G-associated kinase (Homo sapiens) (UniProt O14976); conditions: Compound concentration 1000.0 nM
[7] = molecular target: Tyrosine-protein kinase JAK2 (Homo sapiens) (UniProt O60674); conditions: Compound concentration 1000.0 nM
[8] = molecular target: Dual specificity mitogen-activated protein kinase kinase 2 (Homo sapiens) (UniProt P36507); conditions: Compound concentration 1000.0 nM
[9] = molecular target: T1, Serine/threonine-protein kinase Nek3 (Homo sapiens) (UniProt P51956); conditions: Compound concentration 1000.0 nM
T1 sequence (whole entry): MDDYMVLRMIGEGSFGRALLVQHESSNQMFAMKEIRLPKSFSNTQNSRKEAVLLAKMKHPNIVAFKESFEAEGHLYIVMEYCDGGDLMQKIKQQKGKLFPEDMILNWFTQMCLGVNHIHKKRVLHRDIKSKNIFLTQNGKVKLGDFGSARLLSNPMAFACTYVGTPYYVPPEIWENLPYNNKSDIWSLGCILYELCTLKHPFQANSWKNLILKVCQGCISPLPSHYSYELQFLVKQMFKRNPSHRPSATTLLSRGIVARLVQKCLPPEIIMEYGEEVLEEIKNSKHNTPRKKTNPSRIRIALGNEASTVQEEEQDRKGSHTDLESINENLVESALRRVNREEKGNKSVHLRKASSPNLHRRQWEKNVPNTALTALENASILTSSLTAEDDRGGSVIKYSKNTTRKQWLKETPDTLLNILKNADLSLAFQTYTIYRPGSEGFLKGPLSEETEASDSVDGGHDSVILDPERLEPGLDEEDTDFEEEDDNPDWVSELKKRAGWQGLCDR

[10] = molecular target: Mitogen-activated protein kinase 14 (Homo sapiens) (UniProt Q16539); conditions: Compound concentration 1000.0 nM
[11] = molecular target: Serine/threonine-protein kinase PAK 2 (Homo sapiens) (UniProt Q13177); conditions: Compound concentration 1000.0 nM
[12] = molecular target: Phosphatidylinositol 4,5-bisphosphate 3-kinase catalytic subunit beta isoform (Homo sapiens) (UniProt P42338); conditions: Compound concentration 1000.0 nM
[13] = molecular target: Receptor-interacting serine/threonine-protein kinase 1 (Homo sapiens) (UniProt Q13546); conditions: Compound concentration 1000.0 nM
[14] = molecular target: Ribosomal protein S6 kinase alpha-6 (Homo sapiens) (UniProt Q9UK32); conditions: Compound concentration 1000.0 nM
[15] = molecular target: T2, Serine/threonine-protein kinase Sgk3 (Homo sapiens) (UniProt Q96BR1); conditions: Compound concentration 1000.0 nM
T2 sequence (whole entry): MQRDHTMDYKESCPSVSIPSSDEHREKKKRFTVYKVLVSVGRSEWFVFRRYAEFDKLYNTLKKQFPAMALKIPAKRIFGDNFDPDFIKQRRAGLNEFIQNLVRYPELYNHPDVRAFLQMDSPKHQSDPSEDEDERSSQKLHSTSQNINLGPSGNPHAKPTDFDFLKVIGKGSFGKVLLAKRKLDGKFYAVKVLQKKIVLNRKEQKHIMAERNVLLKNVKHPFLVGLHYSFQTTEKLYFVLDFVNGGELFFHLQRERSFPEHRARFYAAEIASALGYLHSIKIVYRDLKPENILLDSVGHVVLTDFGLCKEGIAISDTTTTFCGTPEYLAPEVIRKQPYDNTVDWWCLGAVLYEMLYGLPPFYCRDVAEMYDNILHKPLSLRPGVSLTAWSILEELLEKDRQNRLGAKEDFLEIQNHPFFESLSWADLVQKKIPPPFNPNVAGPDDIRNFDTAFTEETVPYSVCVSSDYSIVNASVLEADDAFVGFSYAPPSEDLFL

[16] = molecular target: T3, Tyrosine-protein kinase receptor TYRO3 (Homo sapiens) (UniProt Q06418); conditions: Compound concentration 1000.0 nM
T3 sequence (whole entry): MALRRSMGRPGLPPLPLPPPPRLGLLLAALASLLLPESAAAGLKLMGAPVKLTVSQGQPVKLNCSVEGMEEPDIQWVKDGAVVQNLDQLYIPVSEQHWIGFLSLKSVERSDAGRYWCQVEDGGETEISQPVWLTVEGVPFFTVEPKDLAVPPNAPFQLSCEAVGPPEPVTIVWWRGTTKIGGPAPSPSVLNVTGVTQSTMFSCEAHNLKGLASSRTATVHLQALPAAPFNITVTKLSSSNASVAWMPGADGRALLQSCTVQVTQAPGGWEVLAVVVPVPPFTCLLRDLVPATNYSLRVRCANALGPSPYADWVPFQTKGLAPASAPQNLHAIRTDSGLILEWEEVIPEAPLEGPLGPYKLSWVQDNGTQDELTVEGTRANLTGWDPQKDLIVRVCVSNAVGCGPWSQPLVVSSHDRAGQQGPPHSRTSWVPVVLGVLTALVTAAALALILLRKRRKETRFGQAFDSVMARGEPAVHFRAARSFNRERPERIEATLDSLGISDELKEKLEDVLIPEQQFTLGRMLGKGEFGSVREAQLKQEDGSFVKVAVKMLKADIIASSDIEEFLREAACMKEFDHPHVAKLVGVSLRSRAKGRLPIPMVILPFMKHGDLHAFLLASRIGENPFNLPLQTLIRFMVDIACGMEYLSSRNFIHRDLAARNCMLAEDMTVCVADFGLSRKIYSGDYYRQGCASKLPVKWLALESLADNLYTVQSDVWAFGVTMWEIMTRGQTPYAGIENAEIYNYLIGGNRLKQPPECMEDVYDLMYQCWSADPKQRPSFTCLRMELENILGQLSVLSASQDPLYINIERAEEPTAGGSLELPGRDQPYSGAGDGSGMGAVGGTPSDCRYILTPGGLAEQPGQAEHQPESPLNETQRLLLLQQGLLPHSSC

[17] = molecular target: Mu-type opioid receptor (Homo sapiens) (UniProt P35372); conditions: Compound concentration 10.0 uM

Chain of Phosphatidylinositol 4,5-bisphosphate 3-kinase catalytic subunit beta isoform (Homo sapiens) (P42338 whole entry, looked up, canonical isoform): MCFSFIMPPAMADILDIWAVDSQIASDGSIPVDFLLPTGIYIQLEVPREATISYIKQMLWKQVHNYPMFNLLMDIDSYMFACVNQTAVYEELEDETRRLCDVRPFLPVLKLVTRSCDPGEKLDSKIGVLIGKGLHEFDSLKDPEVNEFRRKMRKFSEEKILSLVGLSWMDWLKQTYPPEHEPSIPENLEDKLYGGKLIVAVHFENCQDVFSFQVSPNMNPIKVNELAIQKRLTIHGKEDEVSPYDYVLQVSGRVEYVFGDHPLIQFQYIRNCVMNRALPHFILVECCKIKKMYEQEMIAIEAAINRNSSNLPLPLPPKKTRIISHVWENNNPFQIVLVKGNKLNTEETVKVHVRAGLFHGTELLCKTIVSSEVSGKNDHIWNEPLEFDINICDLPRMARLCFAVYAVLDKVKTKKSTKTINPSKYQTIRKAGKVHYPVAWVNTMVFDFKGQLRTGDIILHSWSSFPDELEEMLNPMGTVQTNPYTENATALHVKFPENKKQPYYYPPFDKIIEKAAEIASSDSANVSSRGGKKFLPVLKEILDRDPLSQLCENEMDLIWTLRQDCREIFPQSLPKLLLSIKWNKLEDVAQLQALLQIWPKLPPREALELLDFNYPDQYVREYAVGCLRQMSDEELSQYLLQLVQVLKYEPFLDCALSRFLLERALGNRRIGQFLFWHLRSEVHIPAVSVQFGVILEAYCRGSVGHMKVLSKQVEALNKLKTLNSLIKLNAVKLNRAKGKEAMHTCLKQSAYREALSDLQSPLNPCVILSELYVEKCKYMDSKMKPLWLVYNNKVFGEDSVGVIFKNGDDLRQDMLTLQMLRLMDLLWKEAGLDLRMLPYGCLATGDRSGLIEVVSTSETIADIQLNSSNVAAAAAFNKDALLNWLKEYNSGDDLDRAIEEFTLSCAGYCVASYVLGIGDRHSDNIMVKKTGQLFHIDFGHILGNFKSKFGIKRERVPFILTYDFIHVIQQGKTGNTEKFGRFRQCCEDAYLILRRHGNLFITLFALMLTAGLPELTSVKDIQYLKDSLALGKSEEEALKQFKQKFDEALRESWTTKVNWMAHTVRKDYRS
Chain of Serine/threonine-protein kinase PAK 2 (Homo sapiens) (Q13177 whole entry, canonical isoform): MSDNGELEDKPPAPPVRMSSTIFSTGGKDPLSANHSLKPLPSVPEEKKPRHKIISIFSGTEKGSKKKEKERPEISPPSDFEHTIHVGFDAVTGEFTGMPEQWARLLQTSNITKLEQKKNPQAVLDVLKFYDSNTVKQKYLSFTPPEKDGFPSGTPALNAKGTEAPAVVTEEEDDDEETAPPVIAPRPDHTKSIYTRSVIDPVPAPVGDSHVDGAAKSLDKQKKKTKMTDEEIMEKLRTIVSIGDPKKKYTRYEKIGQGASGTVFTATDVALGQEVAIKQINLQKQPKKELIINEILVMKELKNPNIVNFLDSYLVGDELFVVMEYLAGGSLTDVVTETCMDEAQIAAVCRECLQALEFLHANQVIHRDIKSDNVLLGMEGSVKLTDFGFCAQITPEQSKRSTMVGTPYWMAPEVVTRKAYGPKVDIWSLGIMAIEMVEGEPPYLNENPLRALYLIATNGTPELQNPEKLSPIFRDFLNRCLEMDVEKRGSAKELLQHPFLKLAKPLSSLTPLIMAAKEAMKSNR
Chain of Tyrosine-protein kinase JAK2 (Homo sapiens) (O60674 whole entry): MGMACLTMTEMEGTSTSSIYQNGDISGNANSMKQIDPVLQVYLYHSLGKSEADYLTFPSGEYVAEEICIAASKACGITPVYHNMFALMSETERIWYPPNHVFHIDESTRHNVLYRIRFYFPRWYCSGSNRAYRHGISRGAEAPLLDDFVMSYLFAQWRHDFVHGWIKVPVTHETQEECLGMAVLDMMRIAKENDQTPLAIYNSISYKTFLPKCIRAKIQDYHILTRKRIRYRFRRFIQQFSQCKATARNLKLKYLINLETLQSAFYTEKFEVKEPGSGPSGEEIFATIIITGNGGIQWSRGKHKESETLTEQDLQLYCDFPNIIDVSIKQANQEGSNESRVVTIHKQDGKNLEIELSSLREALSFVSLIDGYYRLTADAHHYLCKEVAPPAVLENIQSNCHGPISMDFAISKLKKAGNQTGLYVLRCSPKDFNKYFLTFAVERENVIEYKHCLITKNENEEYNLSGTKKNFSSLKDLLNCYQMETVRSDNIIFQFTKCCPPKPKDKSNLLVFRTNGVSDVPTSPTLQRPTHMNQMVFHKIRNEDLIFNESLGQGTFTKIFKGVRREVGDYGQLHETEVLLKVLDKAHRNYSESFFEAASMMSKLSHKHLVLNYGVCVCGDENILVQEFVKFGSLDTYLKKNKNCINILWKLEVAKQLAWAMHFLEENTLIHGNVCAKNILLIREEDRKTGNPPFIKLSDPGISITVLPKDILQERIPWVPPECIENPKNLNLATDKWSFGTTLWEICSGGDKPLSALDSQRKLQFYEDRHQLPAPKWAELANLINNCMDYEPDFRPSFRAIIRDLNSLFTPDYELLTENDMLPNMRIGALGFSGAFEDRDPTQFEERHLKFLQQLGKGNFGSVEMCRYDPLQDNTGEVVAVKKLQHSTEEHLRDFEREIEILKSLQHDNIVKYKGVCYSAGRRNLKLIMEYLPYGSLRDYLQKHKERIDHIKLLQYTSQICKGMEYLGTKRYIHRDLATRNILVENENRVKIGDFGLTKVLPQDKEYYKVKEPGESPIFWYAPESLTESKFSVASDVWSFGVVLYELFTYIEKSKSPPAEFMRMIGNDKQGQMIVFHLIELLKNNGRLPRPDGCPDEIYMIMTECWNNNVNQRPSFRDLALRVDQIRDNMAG
Chain of Mitogen-activated protein kinase 14 (Homo sapiens) (Q16539 whole entry): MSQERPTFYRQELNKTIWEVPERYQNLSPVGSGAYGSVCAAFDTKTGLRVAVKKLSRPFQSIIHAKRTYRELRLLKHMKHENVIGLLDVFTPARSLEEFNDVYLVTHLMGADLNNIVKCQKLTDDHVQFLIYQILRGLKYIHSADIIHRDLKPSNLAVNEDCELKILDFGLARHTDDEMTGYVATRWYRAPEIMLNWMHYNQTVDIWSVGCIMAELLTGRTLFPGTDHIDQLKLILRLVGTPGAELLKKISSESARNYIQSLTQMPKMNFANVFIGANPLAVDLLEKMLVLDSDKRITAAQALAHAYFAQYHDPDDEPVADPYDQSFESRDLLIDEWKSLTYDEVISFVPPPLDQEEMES
Chain of Cyclin-G-associated kinase (Homo sapiens) (O14976 whole entry): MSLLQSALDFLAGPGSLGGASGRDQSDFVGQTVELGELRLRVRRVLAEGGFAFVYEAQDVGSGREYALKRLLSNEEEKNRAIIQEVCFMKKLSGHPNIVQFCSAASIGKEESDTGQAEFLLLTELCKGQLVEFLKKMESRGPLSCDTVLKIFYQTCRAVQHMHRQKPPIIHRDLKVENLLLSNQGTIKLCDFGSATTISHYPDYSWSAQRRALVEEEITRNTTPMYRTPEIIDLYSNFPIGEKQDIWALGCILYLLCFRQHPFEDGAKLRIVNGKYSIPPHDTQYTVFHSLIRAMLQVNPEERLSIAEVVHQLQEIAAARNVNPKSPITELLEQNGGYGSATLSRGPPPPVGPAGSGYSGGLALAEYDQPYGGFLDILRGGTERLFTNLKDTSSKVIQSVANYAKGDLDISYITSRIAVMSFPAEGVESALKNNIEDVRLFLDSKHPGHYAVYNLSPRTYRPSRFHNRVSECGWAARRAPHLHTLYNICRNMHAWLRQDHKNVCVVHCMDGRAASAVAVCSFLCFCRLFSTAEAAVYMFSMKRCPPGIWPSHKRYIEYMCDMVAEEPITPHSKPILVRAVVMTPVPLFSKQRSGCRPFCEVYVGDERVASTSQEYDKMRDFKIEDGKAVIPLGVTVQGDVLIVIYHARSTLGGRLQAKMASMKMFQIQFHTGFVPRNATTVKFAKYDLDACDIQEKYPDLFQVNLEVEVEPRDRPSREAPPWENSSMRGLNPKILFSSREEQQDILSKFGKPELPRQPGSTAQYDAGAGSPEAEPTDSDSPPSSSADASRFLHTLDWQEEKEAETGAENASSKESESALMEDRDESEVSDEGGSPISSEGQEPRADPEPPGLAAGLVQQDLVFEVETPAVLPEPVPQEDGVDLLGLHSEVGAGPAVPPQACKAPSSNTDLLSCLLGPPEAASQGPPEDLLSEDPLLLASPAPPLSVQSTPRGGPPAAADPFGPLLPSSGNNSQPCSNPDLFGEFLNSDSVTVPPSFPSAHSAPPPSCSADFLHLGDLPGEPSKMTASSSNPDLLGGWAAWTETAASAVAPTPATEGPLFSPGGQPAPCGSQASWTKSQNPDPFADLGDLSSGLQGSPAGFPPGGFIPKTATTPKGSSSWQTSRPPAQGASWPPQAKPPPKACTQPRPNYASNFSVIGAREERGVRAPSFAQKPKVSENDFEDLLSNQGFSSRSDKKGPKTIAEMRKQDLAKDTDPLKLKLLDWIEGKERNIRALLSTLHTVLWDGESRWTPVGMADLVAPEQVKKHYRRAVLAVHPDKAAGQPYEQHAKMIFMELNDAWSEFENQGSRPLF
Chain of Dual specificity mitogen-activated protein kinase kinase 2 (Homo sapiens) (P36507 whole entry): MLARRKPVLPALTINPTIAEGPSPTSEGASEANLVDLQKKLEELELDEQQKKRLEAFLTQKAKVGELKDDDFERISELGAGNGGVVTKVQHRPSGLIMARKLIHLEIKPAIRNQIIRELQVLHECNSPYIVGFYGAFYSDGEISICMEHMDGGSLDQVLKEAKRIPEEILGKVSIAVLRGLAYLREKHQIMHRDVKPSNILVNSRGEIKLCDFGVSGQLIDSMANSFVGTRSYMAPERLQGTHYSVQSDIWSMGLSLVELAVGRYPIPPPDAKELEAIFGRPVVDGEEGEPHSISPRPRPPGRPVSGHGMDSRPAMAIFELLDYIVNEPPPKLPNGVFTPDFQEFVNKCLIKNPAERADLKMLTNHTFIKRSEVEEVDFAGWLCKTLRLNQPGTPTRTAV

Row | Structure (SMILES) | residual activity [1] | residual activity [2] | residual activity [3] | residual activity [4] | residual activity [5] | residual activity [6] | residual activity [7] | residual activity [8] | residual activity [9] | residual activity [10] | residual activity [11] | residual activity [12] | residual activity [13] | residual activity [14] | residual activity [15] | residual activity [16] | inhibition [17]
1 | CCc1ccccc1C(=O)Nc1n[nH]c2c(C)c(F)c(C3C(C#N)=C(C)N(C)C(C)=C3C#N)cc12 [BAY-3827] | 100% | 99% | 100% | 95% | 29% | 82% | 100% | 100% | 100% | 100% | 75% | 100% | 100% | 2.9% | 91% | 100% | 30.5%
2 | CC1=C(C#N)C(c2ccc3c(c2)c(NC(=O)c2ccccc2C)nn3C)C(C#N)=C(C)N1 [BAY-974] | 100% | 94% | 93% | 100% | 78% | 100% | 77% | 82% | 94% | 88% | 100% | 86% | 100% | 100% | 95% | 100% | 13.7%
